{"source": "paper PMC6798376", "about": "“Production of galactitol from galactose by the oleaginous yeast Rhodosporidium toruloides IFO0880” (Biotechnology for Biofuels, 2019)", "key": {"[1]": {"molecular_target": "T1, AldR (aldose reductase; also printed AdhR) (Rhodotorula toruloides, UniProt A0A2S9ZVX5)", "T1 sequence (A0A2S9ZVX5 entry or part of it)": "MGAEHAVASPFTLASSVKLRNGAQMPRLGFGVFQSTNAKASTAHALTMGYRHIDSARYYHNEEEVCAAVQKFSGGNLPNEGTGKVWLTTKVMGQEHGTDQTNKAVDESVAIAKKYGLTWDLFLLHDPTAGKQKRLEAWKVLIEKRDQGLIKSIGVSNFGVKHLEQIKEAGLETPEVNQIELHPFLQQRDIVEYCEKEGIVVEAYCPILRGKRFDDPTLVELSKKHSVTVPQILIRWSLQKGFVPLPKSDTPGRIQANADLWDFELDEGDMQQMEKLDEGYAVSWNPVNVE", "test": "spectrophotometric NADPH assay at […] nm", "assay_type": "biochemical", "details": "10 mM galactose as co-substrate; 20 mM Tris-HCl pH 7.0; 25 °C"}, "[2]": {"molecular_target": "T1, AldR (aldose reductase; also printed AdhR)", "test": "spectrophotometric NADPH assay at […] nm; product galactitol by HPLC", "assay_type": "biochemical", "details": "NADPH as coenzyme; 10 mM galactose; 20 mM Tris-HCl pH 7.0; 25 °C"}}}
{"smiles": "NC(=O)C1=CN([C@@H]2O[C@H](COP(=O)(O)OP(=O)(O)OC[C@H]3O[C@@H](n4cnc5c(N)ncnc54)[C@H](OP(=O)(O)O)[C@@H]3O)[C@@H](O)[C@H]2O)C=CC1", "note": "[NADPH]", "values": [{"measurement": "spectrophotometric NADPH assay at 340 nm", "setting": "[1]", "value": "AldR is an NADPH-dependent enzyme, like other galactose reductases"}]}
{"smiles": "OC[C@H]1OC(O)[C@H](O)[C@@H](O)[C@H]1O", "note": "(some centres unmarked) [galactose]", "values": [{"measurement": "spectrophotometric NADPH assay at 340 nm; product galactitol by HPLC", "setting": "[2]", "value": "The recombinant enzyme exhibited activity against galactose with NADPH as the coenzyme"}]}
